PubChem BioAssay AID342 (DTP/NCI, 2004)
Several values for one entry are separate records, joined by “and”; a condition that tells them apart may be missing. Equal entries are not always repeated.

System: Swiss mice, Sarcoma 180 sc, mean tumor weight T/C
Experiment: NCI In Vivo Anticancer Drug Screen. Data for tumor model Sarcoma 180 (subcutaneous) in Swiss mice
Details: endpoint: mean tumor weight, higher = larger tumour
In short: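 Antitumor activity is assessed in mice with transplantable tumors. Treated (T) and vehicle control (C) groups are compared on survival or tumor size.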

Q: How did the T/C (dose: 6.1 mg/kg/injection, schedule: Q01DX007 (sc), vehicle: steriod suspending solution) turn out when `CC(=O)OCC(=O)[C@@]1(O)CC[C@H]2[C@@H]3C=C(C)C4=CC(=O)CC[C@]4(C)[C@H]3[C@@H](O)C[C@@]21C` was run?
A: 67 % of control

Q: And the T/C (dose: 10.0 mg/kg/injection, schedule: Q#A X014 (ip), vehicle: methylcellulose (MC))?
A: 49 % of control

Q: What about the T/C (dose: 11.8 mg/kg/injection, schedule: Q01DX007 (sc), vehicle: steriod suspending solution) of the same molecule?
A: 43 % of control

Q: And the T/C (dose: 12.5 mg/kg/injection, schedule: Q01DX007 (sc), vehicle: steriod suspending solution)?
A: 50 % of control

Q: What about the T/C (dose: 15.0 mg/kg/injection, schedule: Q#A X014 (ip), vehicle: methylcellulose (MC)) of the same molecule?
A: 41 % of control and 44 % of control

Q: And the T/C (dose: 17.7 mg/kg/injection, schedule: Q01DX007 (sc), vehicle: steriod suspending solution)?
A: 40 % of control

Q: What about the T/C (dose: 20.0 mg/kg/injection, schedule: Q01DX007 (sc), vehicle: steriod suspending solution) of the same molecule?
A: 83 % of control

Q: And the T/C (dose: 22.5 mg/kg/injection, schedule: Q#A X014 (ip), vehicle: methylcellulose (MC))?
A: 60 % of control and 64 % of control

Q: What about the T/C (dose: 25.0 mg/kg/injection, schedule: Q01DX007 (sc), vehicle: steriod suspending solution) of the same molecule?
A: 39 % of control

Q: What about the T/C (dose: 26.6 mg/kg/injection, schedule: Q01DX007 (sc), vehicle: steriod suspending solution) of the same molecule?
A: 52 % of control

Q: And the T/C (dose: 30.0 mg/kg/injection, schedule: Q01DX007 (sc), vehicle: steriod suspending solution)?
A: 55 % of control

Q: What about the T/C (dose: 33.75 mg/kg/injection, schedule: Q#A X014 (ip), vehicle: methylcellulose (MC)) of the same molecule?
A: 31 % of control and 54 % of control

Q: And the T/C (dose: 40.0 mg/kg/injection, schedule: Q01DX007 (sc), vehicle: steriod suspending solution)?
A: 41 % of control

Q: What about the T/C (dose: 45.0 mg/kg/injection, schedule: Q01DX007 (sc), vehicle: steriod suspending solution) of the same molecule?
A: 58 % of control and 64 % of control

Q: What about the T/C (dose: 53.0 mg/kg/injection, schedule: Q01DX007 (sc), vehicle: steriod suspending solution) of the same molecule?
A: 71 % of control

Q: And the T/C (dose: 60.0 mg/kg/injection, schedule: Q01DX007 (sc), vehicle: steriod suspending solution)?
A: 36 % of control

Q: What about the T/C (dose: 67.5 mg/kg/injection, schedule: Q01DX007 (sc), vehicle: steriod suspending solution) of the same molecule?
A: 60 % of control

Q: And the T/C (dose: 80.0 mg/kg/injection, schedule: Q01DX007 (sc), vehicle: steriod suspending solution)?
A: 53 % of control

Q: And the T/C (dose: 90.0 mg/kg/injection, schedule: Q01DX007 (sc), vehicle: steriod suspending solution)?
A: 31 % of control

Q: And the T/C (dose: 100.0 mg/kg/injection, schedule: Q01DX007 (sc), vehicle: steriod suspending solution)?
A: 26 % of control

Q: What about the T/C (dose: 120.0 mg/kg/injection, schedule: Q01DX007 (sc), vehicle: steriod suspending solution) of the same molecule?
A: 51 % of control

Q: What about the T/C (dose: 135.0 mg/kg/injection, schedule: Q01DX007 (sc), vehicle: steriod suspending solution) of the same molecule?
A: 27 % of control

Q: What about the T/C (dose: 150.0 mg/kg/injection, schedule: Q01DX007 (sc), vehicle: steriod suspending solution) of the same molecule?
A: 54 % of control

Q: And the T/C (dose: 180.0 mg/kg/injection, schedule: Q01DX007 (sc), vehicle: steriod suspending solution)?
A: 32 % of control

Q: What about the T/C (dose: 202.5 mg/kg/injection, schedule: Q01DX007 (sc), vehicle: steriod suspending solution) of the same molecule?
A: 24 % of control

Q: Which results are given for `CN(C)C1C(=O)C(C(N)=O)=C(O)C2(O)C(=O)C3=C(O)c4c(O)cccc4C(C)(O)C3C(O)C12` (stereo not given)?
A: T/C (dose: 15.12 mg/kg/injection, schedule: Q01DX007 (ip), vehicle: carboxymethylcellulose (CMC)): 98 % of control; T/C (dose: 17.5 mg/kg/injection, schedule: Q01DX007 (ip), vehicle: carboxymethylcellulose (CMC)): 111 % of control; T/C (dose: 31.25 mg/kg/injection, schedule: Q01DX007 (ip), vehicle: carboxymethylcellulose (CMC)): 124 % of control; T/C (dose: 35.0 mg/kg/injection, schedule: Q01DX007 (ip), vehicle: carboxymethylcellulose (CMC)): 105 % of control; T/C (dose: 62.5 mg/kg/injection, schedule: Q01DX007 (ip), vehicle: carboxymethylcellulose (CMC)): 117 % of control; T/C (dose: 70.0 mg/kg/injection, schedule: Q01DX007 (ip), vehicle: carboxymethylcellulose (CMC)): 102 % of control; T/C (dose: 125.0 mg/kg/injection, schedule: Q01DX007 (ip), vehicle: carboxymethylcellulose (CMC)): 50 % of control; T/C (dose: 140.0 mg/kg/injection, schedule: Q01DX007 (ip), vehicle: carboxymethylcellulose (CMC)): 79 % of control

Q: How did the T/C (dose: 10.0 mg/kg/injection, schedule: Q01DX007 (ip), vehicle: other) turn out when `COC(=O)c1cccc2c[n+]3c(cc12)-c1[nH]c2cc(OC)ccc2c1CC3` was run?
A: 70 % of control

Q: What about the T/C (dose: 50.0 mg/kg/injection, schedule: Q01DX007 (ip), vehicle: other) of the same molecule?
A: 73 % of control

Q: What about the T/C (dose: 200.0 mg/kg/injection, schedule: Q01DX007 (ip), vehicle: other) of the same molecule?
A: 74 % of control

Q: How did the T/C (dose: 33.0 mg/kg/injection, schedule: Q01DX007 (sc), vehicle: steriod suspending solution) turn out when `COc1ccc2c(c1)CC[C@@H]1[C@@H]2CC[C@@]2(C)[C@H]1CC[C@@]2(O)C(F)=C(F)F` was run?
A: 52 % of control

Q: What about the T/C (dose: 50.0 mg/kg/injection, schedule: Q01DX007 (sc), vehicle: steriod suspending solution) of the same molecule?
A: 46 % of control

Q: And the T/C (dose: 75.0 mg/kg/injection, schedule: Q01DX007 (sc), vehicle: steriod suspending solution)?
A: 44 % of control

Q: And the T/C (dose: 111.0 mg/kg/injection, schedule: Q01DX007 (sc), vehicle: steriod suspending solution)?
A: 45 % of control

Q: And the T/C (dose: 167.0 mg/kg/injection, schedule: Q01DX007 (sc), vehicle: steriod suspending solution)?
A: 37 % of control

Q: What about the T/C (dose: 250.0 mg/kg/injection, schedule: Q01DX007 (sc), vehicle: steriod suspending solution) of the same molecule?
A: 50 % of control

Q: And the T/C (dose: 375.0 mg/kg/injection, schedule: Q01DX007 (sc), vehicle: steriod suspending solution)?
A: 55 % of control

Q: With `COC(=O)C1(N)CCCC1` as the molecule, how does the T/C (dose: 60.0 mg/kg/injection, schedule: Q01DX007 (ip), vehicle: carboxymethylcellulose (CMC)) read?
A: 59 % of control

Q: And the T/C (dose: 90.0 mg/kg/injection, schedule: Q01DX007 (ip), vehicle: carboxymethylcellulose (CMC))?
A: 42 % of control

Q: And the T/C (dose: 135.0 mg/kg/injection, schedule: Q01DX007 (ip), vehicle: carboxymethylcellulose (CMC))?
A: 33 % of control

Q: And the T/C (dose: 202.0 mg/kg/injection, schedule: Q01DX007 (ip), vehicle: carboxymethylcellulose (CMC))?
A: 20 % of control

Q: What does the source list for `C[C@]12CCc3c(ccc4cc(O)ccc34)[C@@H]1C[C@H](O)[C@@H]2O`?
A: T/C (dose: 2.5 mg/kg/injection, schedule: Q01DX007 (sc), vehicle: steriod suspending solution): 90 % of control; T/C (dose: 10.0 mg/kg/injection, schedule: Q01DX007 (sc), vehicle: steriod suspending solution): 95 % of control

Q: For `COC(=O)C1=CO[C@H](C)[C@@H]2CN3CCc4c([nH]c5ccccc45)[C@@H]3C[C@H]12`, which T/C (dose: 12.5 mg/kg/injection, schedule: Q01DX007 (ip), vehicle: carboxymethylcellulose (CMC)) is on record?
A: 110 % of control

Q: And the T/C (dose: 25.0 mg/kg/injection, schedule: Q01DX007 (ip), vehicle: carboxymethylcellulose (CMC))?
A: 83 % of control

Q: What about the T/C (dose: 50.0 mg/kg/injection, schedule: Q01DX007 (ip), vehicle: carboxymethylcellulose (CMC)) of the same molecule?
A: 84 % of control

Q: And the T/C (dose: 100.0 mg/kg/injection, schedule: Q01DX007 (ip), vehicle: carboxymethylcellulose (CMC))?
A: 98 % of control

Q: Which results are given for `C[C@]12C=CC(=O)C=C1[C@@H](F)C[C@@H]1[C@@H]2[C@@H](O)C[C@@]2(C)[C@H]1CC[C@]2(O)C(=O)CO`?
A: T/C (dose: 3.5 mg/kg/injection, schedule: Q#A X014 (sc), vehicle: steriod suspending solution): 85 % of control; T/C (dose: 7.0 mg/kg/injection, schedule: Q#A X014 (sc), vehicle: steriod suspending solution): 98 % of control; T/C (dose: 10.0 mg/kg/injection, schedule: Q#A X014 (sc), vehicle: steriod suspending solution): 76 % of control; T/C (dose: 15.5 mg/kg/injection, schedule: Q#A X014 (sc), vehicle: steriod suspending solution): 72 % of control; T/C (dose: 22.5 mg/kg/injection, schedule: Q#A X014 (sc), vehicle: steriod suspending solution): 67 % of control

Q: With `C[C@@H]1C[C@@H]([C@H](O)CC2CC(=O)NC(=O)C2)C(=O)[C@@H](C)C1` as the molecule, how does the T/C (dose: 3.0 mg/kg/injection, schedule: Q#A X014 (ip), vehicle: carboxymethylcellulose (CMC)) read?
A: 79 % of control and 92 % of control

Q: What about the T/C (dose: 6.25 mg/kg/injection, schedule: Q#A X014 (ip), vehicle: carboxymethylcellulose (CMC)) of the same molecule?
A: 77 % of control

Q: And the T/C (dose: 9.6 mg/kg/injection, schedule: Q01DX007 (ip), vehicle: carboxymethylcellulose (CMC))?
A: 85 % of control and 96 % of control and 106 % of control

Q: And the T/C (dose: 12.0 mg/kg/injection, schedule: Q01DX007 (ip), vehicle: carboxymethylcellulose (CMC))?
A: 100 % of control (2×) and 122 % of control

Q: And the T/C (dose: 12.0 mg/kg/injection, schedule: Q#A X014 (ip), vehicle: carboxymethylcellulose (CMC))?
A: 38 % of control and 63 % of control

Q: And the T/C (dose: 12.5 mg/kg/injection, schedule: Q#A X014 (ip), vehicle: carboxymethylcellulose (CMC))?
A: 68 % of control

Q: And the T/C (dose: 24.0 mg/kg/injection, schedule: Q01DX007 (ip), vehicle: carboxymethylcellulose (CMC))?
A: 58 % of control and 60 % of control and 65 % of control
